According to PMC8286840, “Identifying SARS-CoV-2 antiviral compounds by screening for small molecule inhibitors of Nsp3 papain-like protease” (Biochemical Journal, 2021):
Counter-ions that a name gives are not always drawn. Like-named read-outs stand apart in the source and are kept apart here.

Legend:
[1] = molecular target: T1, SARS-CoV-2 PLpro (nsp3 1564–1878) (Severe acute respiratory syndrome coronavirus 2, UniProt P0DTD1); assay: biochemical; parameters: FRET-quenched peptide (Pro3) cleavage by PLpro, 10 min pre-incubation, slope over 20 min, normalised to no-compound control; details: high concentration screen, read-out: % of control remaining
[2] = molecular target: T1, SARS-CoV-2 PLpro (nsp3 1564–1878); assay: biochemical; parameters: FRET-quenched peptide (Pro3) cleavage by PLpro, 10 min pre-incubation, slope over 20 min, normalised to no-compound control; details: low concentration screen, read-out: % of control remaining

## Cc1cc(Nc2nc(-c3ccccc3)nc3ccccc23)n[nH]1 [GSK-3 Inhibitor XIII]
[1]; Well no.=2502
  remaining activity at 3.75 µM: 96.8%
[2]; Well no.=2502
  remaining activity at 1.25 µM: 94.8%

## COc1cc(NC(=O)c2ccccn2)ccc1Cl [VU0361737]
[1]; Well no.=7189
  remaining activity at 3.75 µM: 97.6%
[2]; Well no.=7189
  remaining activity at 1.25 µM: 99.9%

## Clc1ccc(Cn2c(CN3CCCC3)nc3ccccc32)cc1 [Clemizole hydrochloride]
[1]; Well no.=226
  remaining activity at 3.75 µM: 98%
[2]; Well no.=226
  remaining activity at 1.25 µM: 98.5%

## CCOc1cc(C(C)(C)C)ccc1C1=N[C@@](C)(c2ccc(Cl)cc2)[C@@](C)(c2ccc(Cl)cc2)N1C(=O)N1CCN(CC(=O)N2CCOCC2)CC1 [p53 and MDM2 proteins-interaction-inhibitor (dihydrochloride)]
[1]; Well no.=6832
  remaining activity at 3.75 µM: 94.5%
[1]; Well no.=7702
  remaining activity at 3.75 µM: 106%
[2]; Well no.=6832
  remaining activity at 1.25 µM: 98.9%
[2]; Well no.=7702
  remaining activity at 1.25 µM: 107%

## O=C1NC(=O)c2cc(Nc3ccc(F)cc3)c(Nc3ccc(F)cc3)cc21 [CGP 53353 - 5,6-bis[(4-Fluorophenyl)amino]-1H-isoindole-1,3(2H)-dione]
[1]; Well no.=2530
  remaining activity at 3.75 µM: 102%
[2]; Well no.=2530
  remaining activity at 1.25 µM: 101%

## Cc1cc(-c2ccc(N=Nc3c(S(=O)(=O)O)cc4cc(S(=O)(=O)O)cc(N)c4c3O)c(C)c2)ccc1N=Nc1c(S(=O)(=O)O)cc2cc(S(=O)(=O)O)cc(N)c2c1O [Diphenyl Blue]
[1]; Well no.=7598
  remaining activity at 3.75 µM: 89.2%
[2]; Well no.=7598
  remaining activity at 1.25 µM: 89.8%

## CC(C)(CO)[C@@H](O)C(=O)NCCC(=O)O [Pantothenic acid]
[1]; Well no.=2288
  remaining activity at 3.75 µM: 92.3%
[2]; Well no.=2288
  remaining activity at 1.25 µM: 90.1%

## O=S(=O)(NC1CCCCC1)c1ccc2c(c1)C(=NO)c1cc(S(=O)(=O)NC3CCCCC3)ccc1-2 [FIN56]
[1]; Well no.=6740
  remaining activity at 3.75 µM: 97.8%
[1]; Well no.=8726
  remaining activity at 3.75 µM: 94.6%
[2]; Well no.=6740
  remaining activity at 1.25 µM: 99.6%
[2]; Well no.=8726
  remaining activity at 1.25 µM: 93.4%

## O=C(O)c1cn(-c2ccc(F)cc2)c2cc(N3CCNCC3)c(F)cc2c1=O [Sarafloxacin]
[1]; Well no.=2241
  remaining activity at 3.75 µM: 101%
[2]; Well no.=2241
  remaining activity at 1.25 µM: 101%

## Oc1ccc2c3c1O[C@H]1c4[nH]c5c(c4C[C@@]4(O)[C@@H](C2)N(CC2CC2)CC[C@]314)C[C@@]1(O)[C@H]2Cc3ccc(O)c4c3[C@@]1(CCN2CC1CC1)[C@H]5O4 [nor-Binaltorphimine dihydrochloride]
[1]; Well no.=805
  remaining activity at 3.75 µM: 97%
[2]; Well no.=805
  remaining activity at 1.25 µM: 100%

## CC(C(=O)O)c1cccc(Oc2ccccc2)c1 (stereo not drawn) [Fenoprofen]
[1]; Well no.=2082
  remaining activity at 3.75 µM: 99.2%
[2]; Well no.=2082
  remaining activity at 1.25 µM: 98.6%

## O=C1NC(=O)c2c1c1c3ccccc3[nH]c1c1[nH]c3cc(Br)ccc3c21 [Cdk4 Inhibitor]
[1]; Well no.=2404
  remaining activity at 3.75 µM: 99.9%
[2]; Well no.=2404
  remaining activity at 1.25 µM: 99.9%

## Nc1nc2c(ncn2[C@H]2C[C@H](O)[C@@H](CO)O2)c(=O)[nH]1 [2'-Deoxyguanosine]
[1]; Well no.=6209
  remaining activity at 3.75 µM: 97.7%
[1]; Well no.=7772
  remaining activity at 3.75 µM: 101%
[2]; Well no.=6209
  remaining activity at 1.25 µM: 102%
[2]; Well no.=7772
  remaining activity at 1.25 µM: 99.2%

## C[C@H]1C/C=C/[C@H]2[C@@H]3O[C@]3(C)[C@@H](C)[C@H]3[C@H](Cc4ccccc4)NC(=O)[C@]32OC(=O)O/C=C/[C@@](C)(O)C1=O [Cytochalasin E]
[1]; Well no.=3627
  remaining activity at 3.75 µM: 103%
[2]; Well no.=3627
  remaining activity at 1.25 µM: 101%

## c1ccc(CNCc2ccc(CN3CCCNCCNCCCNCC3)cc2)nc1 [AMD 3465 (hexahydrobromide)]
[1]; Well no.=7245
  remaining activity at 3.75 µM: 87.4%
[1]; Well no.=8419
  remaining activity at 3.75 µM: 92.2%
[2]; Well no.=7245
  remaining activity at 1.25 µM: 90.9%
[2]; Well no.=8419
  remaining activity at 1.25 µM: 98.5%

## CN(C)CCCCSC(=N)N [SKF 91488 dihydrochloride]
[1]; Well no.=1421
  remaining activity at 3.75 µM: 98.7%
[2]; Well no.=1421
  remaining activity at 1.25 µM: 100%

## CCC[S+]([O-])c1ccc2[nH]c(NC(=O)OC)nc2c1 (stereo not drawn) [Ricobendazole]
[1]; Well no.=2021
  remaining activity at 3.75 µM: 106%
[2]; Well no.=2021
  remaining activity at 1.25 µM: 103%

## O[C@H]1CCN2Cc3ccccc3N=C12 [Vasicine]
[1]; Well no.=3406
  remaining activity at 3.75 µM: 94.4%
[2]; Well no.=3406
  remaining activity at 1.25 µM: 97.8%

## Nc1nc2ccc(Cl)cc2n2c(-c3ccccc3)nnc12 [CP-66713]
[1]; Well no.=5624
  remaining activity at 3.75 µM: 96%
[2]; Well no.=5624
  remaining activity at 1.25 µM: 96.6%

## NC(=O)Nc1sc(-c2ccccc2)cc1C(N)=O [IKK-2 Inhibitor VI]
[1]; Well no.=2437
  remaining activity at 3.75 µM: 106%
[2]; Well no.=2437
  remaining activity at 1.25 µM: 107%
